Results as given in US20200237717A1, “Treatment of Staphylococcal and Enterococcal Infections Using Substituted Nitrostyrene Compounds” (Opal Biosciences Limited, priority 2017, published 2020).
Values after ≈ are worked out from the molar mass of the structure shown. Where two headings read alike, the source gives them in different places.

Key:
[1] = tested on: MRSA bacteraemia isolates; assay: BDM-I MIC by broth microdilution (BMD), collection of clinical MRSA isolates; type: cell-based, Staphylococcus aureus; details: clinical MRSA isolates with varying vancomycin susceptibilities
Protocol: (§1) One-hundred and three MRSA bacteraemia isolates (from Liverpool Hospital, Sydney, Australia) were selected for this study. BDM-I MICs were determined by the broth microdilution method (BMD) as described by the CLSI (Clinical Laboratory Standards Institute, Methods for Dilution Antimicrobial Susceptibility Tests for Bacteria That Grow Aerobically: Ninth Edition: Approved Standard M07-A9, CLSI, Wayne, Pa., USA, 2012) using CAMHB (Oxoid-Thermo Fisher, Hampshire, UK). BDM-I concentrations ranged from 1 to 10 mg/L in 1 mg/L increments. All isolates had previously undergone vancomycin MIC testing and hVISA/VISA characterization (van Hal, Barbagiannakos et al., 2011; van Hal, Jones et al., 2011). Statistical analysis to determine correlation between variables was completed using the Spearman's test; with P<0.05 considered significant. Calculations were completed using SPSS statistical software (version 22.0; SPSS Inc, Chicago, Ill., USA).
(§2) The BDM-I MICs for a collection of clinical MRSA isolates, with varying vancomycin susceptibilities, were determined using the BMD method.

[2] = tested on: many Gram-negative and most Gram-positive bacterial species as well as many fungal species; details: literature report; cited from earlier work
[3] = tested on: chickens; details: in vivo; cited from earlier work
[4] = tested on: VSSA MRSA isolates (n = 43); assay: MIC by BMD, MRSA isolates of VSSA phenotype; type: cell-based; details: Staphylococcus aureus, VSSA isolates (n = 43)
Protocol: as §1, §2

[5] = tested on: VISA MRSA isolates (n = 6); assay: MIC by BMD, MRSA isolates of VISA phenotype; type: cell-based; details: Staphylococcus aureus, VISA isolates (n = 6)
Protocol: as §1, §2

[6] = tested on: MRSA isolate Sa375 (VISA); assay: microbe, parasite or virus in culture; type: cell-based, Staphylococcus aureus; details: for MIC: Staphylococcus aureus
[7] = tested on: hVISA MRSA isolates (n = 54); assay: MIC by BMD, MRSA isolates of hVISA phenotype; type: cell-based; details: Staphylococcus aureus, hVISA isolates (n = 54)
Protocol: as §1, §2

[8] = tested on: Plasmodium falciparum; details: literature report; cited from earlier work
[9] = tested on: Mycobacterium tuberculosis; details: literature report; cited from earlier work
[10] = tested on: vanB VRE clinical isolates; assay: BDM-I and vancomycin checkerboard assay (broth microdilution, FICI); type: cell-based, Enterococcus faecium; details: vancomycin combined with BDM-I at fixed concentrations, vanB VRE isolate; FICI ≤0.5 indicates synergy
[11] = in vivo; cited from earlier work
[12] = tested on: mice; details: mouse, in vivo; cited from earlier work
[13] = tested on: hVISA MRSA isolates (n = 54); details: hVISA isolates (n = 54), BMD, previously determined; cited from earlier work
[14] = tested on: vancomycin intermediate-resistant S. aureus (VISA); details: MRSA isolate reported in Japan in 1997 (VISA); cited from earlier work
[15] = tested on: VSSA MRSA isolates (n = 43); details: VSSA isolates (n = 43), BMD, previously determined; cited from earlier work
[16] = tested on: VISA MRSA isolates (n = 6); details: VISA isolates (n = 6), BMD, previously determined; cited from earlier work
[17] = tested on: vancomycin-resistant S. aureus (VRSA) strain; details: first VRSA strain, United States 2002; cited from earlier work

C/C(=C\c1ccc2c(c1)OCO2)[N+](=O)[O-] [BDM-I, 3,4-methylenedioxy-β-methyl-β-nitrostyrene]
BDM-I MIC (range over isolates) [1]: 2 to 5 µg/mL | Antimicrobial spectrum [2]: broadly microbicidal | Oral toxicity [3]: low oral toxicity | MIC50 ([4]; read-out: BDM-I MIC50): 1.71 µg/mL (≈ 8.25 µM) | MIC ([4]; read-out: BDM-I MIC (average)): 3.42 µg/mL (≈ 16.5 µM) | MIC50 ([5]; read-out: BDM-I MIC50): 1.25 µg/mL (≈ 6.03 µM) | MIC ([5]; read-out: BDM-I MIC (average)): 2.5 µg/mL (≈ 12.1 µM) | BDM-I MIC increase ([6]; Sa375, day 110 vs start, 21 out of 21 colonies): 3 µg/mL | MIC ([6]; read-out: BDM-I MIC, Sa375 before passage in BDM-I): 2 µg/mL (≈ 9.65 µM) | MIC ([6]; read-out: BDM-I MIC, Sa375 day 110 colonies (21 out of 21)): 5 µg/mL (≈ 24.1 µM) | MIC50 ([7]; read-out: BDM-I MIC50): 1.64 µg/mL (≈ 7.92 µM) | MIC ([7]; read-out: BDM-I MIC (average)): 3.28 µg/mL (≈ 15.8 µM) | Activity against Plasmodium falciparum [8]: active | Activity against Mycobacterium tuberculosis [9]: active | Interaction with vancomycin (checkerboard, FICI) [10]: synergistic activity | Absorption from the intestinal tract [11]: poorly absorbed | Oral toxicity [12]: low oral toxicity

CN[C@H](CC(C)C)C(=O)N[C@H]1C(=O)N[C@@H](CC(N)=O)C(=O)N[C@H]2C(=O)N[C@H]3C(=O)N[C@H](C(=O)N[C@H](C(=O)O)c4cc(O)cc(O)c4-c4cc3ccc4O)[C@H](O)c3ccc(c(Cl)c3)Oc3cc2cc(c3O[C@@H]2O[C@H](CO)[C@@H](O)[C@H](O)[C@H]2O[C@H]2C[C@](C)(N)[C@H](O)[C@H](C)O2)Oc2ccc(cc2Cl)[C@H]1O [Vancomycin]
Vancomycin MIC50 [13]: 0.96 µg/mL | Vancomycin MIC (average) [13]: 1.92 µg/mL | vancomycin MIC [14]: 3 to 8 µg/mL | Vancomycin MIC50 [15]: 0.58 µg/mL | Vancomycin MIC (average) [15]: 1.16 µg/mL | MIC ([6]; read-out: Vancomycin MIC): 4 µg/mL (≈ 2.76 µM) | Vancomycin MIC50 [16]: 1.1 µg/mL | Vancomycin MIC (average) [16]: 2.2 µg/mL | vancomycin MIC [17]: greater than 100 μg/mL
